Test results from patent publication US20240109903A1, “SUBSTITUTED HETEROCYCLES FOR TREATING CANCER” (Northwestern University, priority 2022, published 2024).
Where two headings read alike, the source gives them in different places.

Assays:
SF-295 = assay: NCI 60 five-dose screen SF-295; assay type: cell-based; conditions: Homo sapiens; for CC50: read-out: LC50 (the source's name) (converted)
OVCAR-4 = assay: NCI 60 five-dose screen OVCAR-4; assay type: cell-based; conditions: Homo sapiens; for CC50: read-out: LC50 (the source's name) (converted)
[1] = tested on: MV-4-11 acute myeloid leukemia cells; assay: CellTiter-Glo 2.0 cell viability, MV-4-11; assay type: cell-based; conditions: Homo sapiens
Procedure, shortened: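 MV4-11 cells plated at 3,000 cells/well on pre-dispensed compounds and incubated 3 days at 37 °C, 5% CO2. Viability read as ATP-dependent luminescence with CellTiter-Glo 2.0 after 20 min at ambient temperature, followed by regression analysis.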

SK-MEL-5 = assay: NCI 60 five-dose screen SK-MEL-5; assay type: cell-based; conditions: Homo sapiens; for CC50: read-out: LC50 (the source's name) (converted)
NCI-H322M = assay: NCI 60 five-dose screen NCI-H322M; assay type: cell-based; conditions: Homo sapiens; for CC50: read-out: LC50 (the source's name) (converted)
OVCAR-5 = assay: NCI 60 five-dose screen OVCAR-5; assay type: cell-based; conditions: Homo sapiens; for CC50: read-out: LC50 (the source's name) (converted)
SR = assay: NCI 60 five-dose screen SR; assay type: cell-based, human; conditions: for GI50 / IC50 / CC50: Homo sapiens; for CC50: read-out: LC50 (the source's name)
NCI-H226 = assay: NCI 60 five-dose screen NCI-H226; assay type: cell-based; conditions: Homo sapiens; for CC50: read-out: LC50 (the source's name) (converted)
full NCI 60 cell panel = assay: NCI 60 Cell One-dose screen; assay type: cell-based, human; conditions: single high dose 10^−5 M, NCI 60 panel
Description: Compounds were submitted to the NCI 60 Cell screen and tested at a single high dose (10^−5 M) in the full NCI 60 cell panel (see the following reference for details of using NCI 60 human tumor cell lines for screening anticancer drugs: Shoemaker R H. The NCI60 human tumor cell line anticancer drug screen. Nature Rev Cancer 2006; 6: 813-23). The One-dose data is reported as a mean graph of the percent growth of treated cells. The number reported for the One-dose assay is growth relative to the no-drug control, and relative to the time zero number of cells. This allows detection of both growth inhibition (values between 0 and 100) and lethality (values less than 0). For example, a value of 100 means no growth inhibition. A value of 40 would mean 60% growth inhibition. A value of 0 means no net growth over the course of the experiment. A value of −40 would mean 40% lethality. A value of −100 means all cells are dead. FIGS. 1-8 show the mean graph of percent growth against the NCI-60 cell panel for NUCC-0226674, NUCC-0226679, NUCC-0226680, NUCC-0226683, NUCC-0226689, NUCC-0226694, NUCC-0226695, and NUCC-0226698.

EKVX = assay: NCI 60 five-dose screen EKVX; assay type: cell-based; conditions: Homo sapiens; for CC50: read-out: LC50 (the source's name) (converted)
HOP-62 = assay: NCI 60 five-dose screen HOP-62; assay type: cell-based; conditions: Homo sapiens; for CC50: read-out: LC50 (the source's name) (converted)
CAKI-1 = assay: NCI 60 five-dose screen CAKI-1; assay type: cell-based; conditions: Homo sapiens; for CC50: read-out: LC50 (the source's name) (converted)
SNB-75 = assay: NCI 60 five-dose screen SNB-75; assay type: cell-based; conditions: Homo sapiens; for CC50: read-out: LC50 (the source's name) (converted)
HT29 = assay: NCI 60 five-dose screen HT29; assay type: cell-based; conditions: Homo sapiens; for GI50 / IC50 / IC (TGI): HT-29; for CC50: HT-29, read-out: LC50 (the source's name) (converted)
MDA-MB-231/ATCC = assay: NCI 60 five-dose screen MDA-MB-231/ATCC; assay type: cell-based; conditions: Homo sapiens; for CC50: read-out: LC50 (the source's name) (converted)
SF-268 = assay: NCI 60 five-dose screen SF-268; assay type: cell-based; conditions: Homo sapiens; for CC50: read-out: LC50 (the source's name) (converted)
HCT-116 = assay: NCI 60 five-dose screen HCT-116; assay type: cell-based; conditions: Homo sapiens; for CC50: read-out: LC50 (the source's name) (converted)
K-562 = assay: NCI 60 five-dose screen K-562; assay type: cell-based; conditions: Homo sapiens; for GI50 / IC50 / IC (TGI): K562; for CC50: K562, read-out: LC50 (the source's name)
HCT-15 = assay: NCI 60 five-dose screen HCT-15; assay type: cell-based; conditions: Homo sapiens; for CC50: read-out: LC50 (the source's name) (converted)
HOP-92 = assay: NCI 60 five-dose screen HOP-92; assay type: cell-based; conditions: Homo sapiens; for CC50: read-out: LC50 (the source's name) (converted)
[2] = MV4-11, 72 h, MV-4-11 cells, 3 days, CellTiter-Glo 2.0, read-out: IC50 (uM) [Cell Type: MV-4-11]
[3] = MV4-11, bound stated in text, read-out: IC50 against MV-4-11 acute myeloid leukemia cells

In the case of `Fc1ccc(N2CC(Cn3c(C(F)(F)F)cc4c(Cl)ncnc43)C2)c(F)c1` [NUCC-0226695], the GI50 (SF-295) is reported as 11.5 µM, the IC50 (SF-295) is reported as 20 µM and the IC (TGI) (SF-295) is reported as 24.5 µM. The CC50 (SF-295) was 52.5 µM, the GI50 (OVCAR-4) was 12.9 µM and the IC50 (OVCAR-4) was 24.5 µM. The IC (TGI) (OVCAR-4) was 26.9 µM, the CC50 (OVCAR-4) was 56.2 µM and the IC50 [1, 2] was 0.739 µM. It also gave an IC50 [1, 3] of under 2 µM, a GI50 (SK-MEL-5) of 11 µM and an IC50 (SK-MEL-5) of 18.2 µM. For the same molecule, the IC (TGI) (SK-MEL-5) was 22.9 µM, the CC50 (SK-MEL-5) was 47.9 µM and the GI50 (NCI-H322M) was 10.7 µM. The IC50 (NCI-H322M) was 20.4 µM, the IC (TGI) (NCI-H322M) was 22.9 µM and the CC50 (NCI-H322M) was 47.9 µM. It also gave a GI50 (OVCAR-5) of 17.8 µM, an IC50 (OVCAR-5) of 32.4 µM and an IC (TGI) (OVCAR-5) of 37.2 µM. For the same molecule, the CC50 (OVCAR-5) was 77.6 µM, the TGI (SR) was 5.16 −log[M] and the GI50 (SR) was 2.14 µM. It also gave an IC50 (SR) of 3.39 µM, a CC50 (SR) of at least 100 µM and a GI50 (NCI-H226) of 14.1 µM. For the same molecule, the IC50 (NCI-H226) was 33.9 µM, the IC (TGI) (NCI-H226) was 30.9 µM and the CC50 (NCI-H226) was 69.2 µM. For the same molecule, the “growth inhibition in the One-Dose Screen” value (full NCI 60 cell panel) was “significant growth inhibition”, the GI50 (EKVX) was 6.61 µM and the IC50 (EKVX) was 16.6 µM. It also gave an IC (TGI) (EKVX) of 20 µM, a CC50 (EKVX) of 46.8 µM and a GI50 (HOP-62) of 17 µM. For the same molecule, the IC50 (HOP-62) was 32.4 µM, the IC (TGI) (HOP-62) was 33.9 µM and the CC50 (HOP-62) was 66.1 µM. It also gave a GI50 (CAKI-1) of 11.7 µM, an IC50 (CAKI-1) of 20.4 µM and an IC (TGI) (CAKI-1) of 24 µM. For the same molecule, the CC50 (CAKI-1) was 50.1 µM, the GI50 (SNB-75) was 12 µM and the IC50 (SNB-75) was 25.1 µM. It also gave an IC (TGI) (SNB-75) of 24.5 µM, a CC50 (SNB-75) of 51.3 µM and a GI50 (HT29) of 3.47 µM. It also gave an IC50 (HT29) of 4.27 µM, an IC (TGI) (HT29) of 16.2 µM and a CC50 (HT29) of 97.7 µM. For the same molecule, the GI50 (MDA-MB-231/ATCC) was 1.62 µM, the IC50 (MDA-MB-231/ATCC) was 2.95 µM and the IC (TGI) (MDA-MB-231/ATCC) was 3.09 µM. For the same molecule, the CC50 (MDA-MB-231/ATCC) was 5.89 µM, the GI50 (SF-268) was 3.16 µM and the IC50 (SF-268) was 5.62 µM. It also gave an IC (TGI) (SF-268) of 11.2 µM, a CC50 (SF-268) of 47.9 µM and a GI50 (HCT-116) of 1.91 µM. The IC50 (HCT-116) was 3.16 µM, the IC (TGI) (HCT-116) was 3.89 µM and the CC50 (HCT-116) was 7.94 µM. It also gave a GI50 (K-562) of 2.34 µM, an IC50 (K-562) of 3.09 µM and an IC (TGI) (K-562) of 7.08 µM. The CC50 (K-562) was at least 100 µM, the GI50 (HCT-15) was 1.78 µM and the IC50 (HCT-15) was 3.09 µM. It also gave an IC (TGI) (HCT-15) of 3.55 µM, a CC50 (HCT-15) of 7.08 µM and a GI50 (HOP-92) of 11 µM. The IC50 (HOP-92) was 26.9 µM, the IC (TGI) (HOP-92) was 25.7 µM and the CC50 (HOP-92) was 58.9 µM.

`O=c1ccc(Cn2c(C(F)(F)F)cc3c(Cl)ncnc32)c[nH]1` [NUCC-0226698] was tested, and the GI50 (SF-295) was 28.2 µM, the IC50 (SF-295) was 50.1 µM and the IC (TGI) (SF-295) was 100 µM. The CC50 (SF-295) was at least 100 µM, the GI50 (OVCAR-4) was 17.8 µM and the IC50 (OVCAR-4) was 36.3 µM. The IC (TGI) (OVCAR-4) was 44.7 µM, the CC50 (OVCAR-4) was at least 100 µM and the IC50 [1, 2] was 1.26 µM. For the same molecule, the IC50 [1, 3] was under 2 µM, the GI50 (SK-MEL-5) was 4.07 µM and the IC50 (SK-MEL-5) was 7.08 µM. For the same molecule, the IC (TGI) (SK-MEL-5) was 15.1 µM, the CC50 (SK-MEL-5) was 38.9 µM and the GI50 (NCI-H322M) was 14.1 µM. It also gave an IC50 (NCI-H322M) of 32.4 µM, an IC (TGI) (NCI-H322M) of 39.8 µM and a CC50 (NCI-H322M) of at least 100 µM. For the same molecule, the GI50 (OVCAR-5) was 61.7 µM, the IC50 (OVCAR-5) was 100 µM and the IC (TGI) (OVCAR-5) was 100 µM. The CC50 (OVCAR-5) was at least 100 µM, the TGI (SR) was 4.93 −log[M] and the GI50 (SR) was 2.75 µM. For the same molecule, the IC50 (SR) was 3.89 µM, the CC50 (SR) was at least 100 µM and the GI50 (NCI-H226) was 31.6 µM. It also gave an IC50 (NCI-H226) of 100 µM, an IC (TGI) (NCI-H226) of 100 µM and a CC50 (NCI-H226) of at least 100 µM. For the same molecule, the “growth inhibition in the One-Dose Screen” value (full NCI 60 cell panel) was “significant growth inhibition”, the GI50 (EKVX) was 14.1 µM and the IC50 (EKVX) was 30.9 µM. For the same molecule, the IC (TGI) (EKVX) was 36.3 µM, the CC50 (EKVX) was 91.2 µM and the GI50 (HOP-62) was 46.8 µM. For the same molecule, the IC50 (HOP-62) was 100 µM, the IC (TGI) (HOP-62) was 100 µM and the CC50 (HOP-62) was at least 100 µM. The GI50 (CAKI-1) was 23.4 µM, the IC50 (CAKI-1) was 42.7 µM and the IC (TGI) (CAKI-1) was 100 µM. It also gave a CC50 (CAKI-1) of at least 100 µM, a GI50 (SNB-75) of 10.7 µM and an IC50 (SNB-75) of 24 µM. It also gave an IC (TGI) (SNB-75) of 23.4 µM, a CC50 (SNB-75) of 50.1 µM and a GI50 (HT29) of 28.8 µM. It also gave an IC50 (HT29) of 38 µM, an IC (TGI) (HT29) of 100 µM and a CC50 (HT29) of at least 100 µM. For the same molecule, the GI50 (MDA-MB-231/ATCC) was 4.68 µM, the IC50 (MDA-MB-231/ATCC) was 10 µM and the IC (TGI) (MDA-MB-231/ATCC) was 18.2 µM. It also gave a CC50 (MDA-MB-231/ATCC) of 57.5 µM, a GI50 (SF-268) of 10.7 µM and an IC50 (SF-268) of 20.9 µM. For the same molecule, the IC (TGI) (SF-268) was 28.8 µM, the CC50 (SF-268) was 79.4 µM and the GI50 (HCT-116) was 3.55 µM. The IC50 (HCT-116) was 4.17 µM, the IC (TGI) (HCT-116) was 29.5 µM and the CC50 (HCT-116) was at least 100 µM. For the same molecule, the GI50 (K-562) was 2.82 µM, the IC50 (K-562) was 3.39 µM and the IC (TGI) (K-562) was 100 µM. For the same molecule, the CC50 (K-562) was at least 100 µM, the GI50 (HCT-15) was 2.95 µM and the IC50 (HCT-15) was 3.8 µM. The IC (TGI) (HCT-15) was 14.8 µM, the CC50 (HCT-15) was at least 100 µM and the GI50 (HOP-92) was 22.9 µM. It also gave an IC50 (HOP-92) of 100 µM, an IC (TGI) (HOP-92) of 100 µM and a CC50 (HOP-92) of at least 100 µM.
